The values that follow are results of earlier work, collected in patent publication US8968710B1, “Topical anesthetic” (priority 2005, dated 2015).

As to `CCCCNc1ccc(C(=O)OCCN(C)C)cc1` [Tetracaine], the “solubility in alcohol, ether, benzene and chloroform” value (alcohol, ether, benzene, chloroform) was “soluble”. The solubility in water entry (water) is listed as “very slightly soluble”.
